Consider 5 molecules from patent publication US8609065B2, “Molecules for targeting compounds to various selected organs, tissues or tumor cells” (Prosensa Technologies B.V., priority 2007, dated 2013).

Peptide text beside a SMILES is read from it.

The nature of data set [1]: In vivo targeting to brain cells, Cy5-labeled peptide imaging. The following applies: 7 nmol intravenously, nude mouse. The protocol: Peptide THRPPMWSPVWP (SEQ ID NO: 1) was labeled with a Cy5 fluorescent label and 7 nmol was injected intravenously into the tail vein of a nude mouse. Pictures were taken with a Maestro imaging system using the filters for Cy5 detection.
On the left side of FIGS. 1A and 1B the detected Cy5 pattern is shown separately in red for quantitation. The numbers on the left side indicate the amount of detected Cy5 label.

Data set [2] has as its system KM109 cells. Description: Uptake of fluorescently labeled variants of THRPPMWSPVWP on KM109 cells. Type of data set: cell-based. The following applies: fluorescently labeled peptide. The method, then:
Several variants of peptide THRPPMWSPVWP (SEQ ID NO: 1) (see Table 2) were selected, synthesized with a fluorescent label and tested for uptake on KM109 cells. Peptides 3, 7, 8, 9, 10, and 11 were tested. […] The other peptides depicted in the table below are yet to be tested for uptake on KM109 cells. Moreover, all peptides are to be tested for uptake on neuroblastoma cells in a similar fashion.

The test system of data set [3] is muscle cells. The experiment in a line: Selective uptake by muscle cells (summary statement). It counts as cell-based. The text has this: Therefore, these may be used for targeting diagnostic moieties or biologically active moieties to an organ or tissue or cell type of interest, especially to muscle cells or across the blood brain barrier to brain cells, to neuronal cells or to tumor cells of neuronal or neuroectodermal origin.

Data set [4] concerns N1E-115 mouse neuroblastoma cells. Description: In vitro uptake of FAM-labeled peptides into neuroblastoma cells (fluorescence microscopy). Type of data set: cell-based. The following applies: FAM-labeled peptide, N1E-115 cells. The method, then:
A selection of peptides was synthesized and provided with a fluorescent label (FAM) and screened for uptake on mouse neuroblastoma cells in vitro.
N1E-115 mouse neuroblastoma cells were incubated with the FAM-labeled peptides and photographed with an inverted fluorescence microscope, without previous fixation.

Regarding `CSCC[C@H](NC(=O)[C@@H]1CCCN1C(=O)[C@@H]1CCCN1C(=O)[C@H](CCCNC(=N)N)NC(=O)[C@H](Cc1c[nH]cn1)NC(=O)[C@@H](N)[C@@H](C)O)C(=O)N[C@@H](Cc1c[nH]c2ccccc12)C(=O)N[C@@H](CO)C(=O)N1CCC[C@H]1C(=O)N[C@H](C(=O)N[C@@H](Cc1c[nH]c2ccccc12)C(=O)N1CCC[C@H]1C(=O)O)C(C)C` [THRPPMWSPVWP] (H-THRPPMWSPVWP-OH; N-terminus and C-terminus assumed), in data set [1], the “crossing of the blood brain barrier” value is given as “able to cross the blood brain barrier”. In addition, the “Cy5 signal in the brain” value in data set [1] (20 minutes after injection) was “clear signal could be detected in the brain”.

As for HRPPMWSPVW, the “uptake on KM109 cells” value in data set [2] is “taken up, although at a lower level”. Also, the “selective uptake by muscle cells” value in data set [3] is given as “selectively taken up by muscle cells”.

Consider HRPPMWSPVWP, for which the “uptake on KM109 cells” value in data set [2] is reported as “taken up very efficiently”. Besides, in data set [3], the “selective uptake by muscle cells” value is on record as “selectively taken up by muscle cells”.

For the molecule LPWKPLG, the “intracellular staining pattern after uptake” value in data set [4] is recorded as “uniform staining of the cytoplasm as well as the nucleus”. For the same molecule, the “uptake by the neuroblastoma cells” value in data set [4] (inverted fluorescence microscope, no fixation) is reported as “efficiently taken up”.

On to THRPPMWS, for which the “uptake on KM109 cells” value in data set [2] is on record as “taken up, although at a lower level”. In data set [3], the “selective uptake by muscle cells” value is listed as “selectively taken up by muscle cells”.
